Results: US10577350B2, “Crystalline forms of (R)-N-((4-methoxy-6-methyl-2-oxo-1,2-dihydropyridin-3-yl)methyl)-2-methyl-1-(1-(1-(2,2,2-trifluoroethyl)piperidin-4-yl)ethyl)-1H-indole-3-carboxamide” (Constellation Pharmaceuticals, Inc., priority 2015, dated 2020)
Values belong to the compound of their own block, whether it stands above or below them.

Assays:
[1] = DVS moisture sorption at 25° C.; assay type: physicochemical; conditions: for Post DVS changes: after DVS, PLM, XRD, DSC, TGA; for DVS final sample wt lower than starting wt: after one full sorption cycle
Method: Moisture sorption profiles were generated isothermally at 25° C. using a Hiden IGAsorp moisture sorption analyzer. Samples were dried on the instrument under inert nitrogen at 40° C. for 60 min. Following drying the samples moisture sorption was determined by performing one full cycle of weight measurements at 0, 10, 20, 30, 40, 50, 60, 70, 80, 90 and 95% RH, with exposure time at each humidity set point dependent upon a minimum of 99% confidence in the F1 fit model or 15 min, with a maximum timeout of 120 min. The moisture sorption isotherms were plotted as a function of weight change (relative weight % of the dried starting weight) and % RH.

[2] = Pharmacokinetics in rat after oral suspension; assay type: in vivo, rats; conditions: for Cmax / AUC(0-t): plasma; for AUC(0-t): read-out: AUC0-24 h
Text: Compound 365 was formulated similarly to Form C, suspension in 0.5% methylcellulose, 0.1% Tween 80 in purified water.

[3] = Aqueous solubility of solid forms (Table 2); assay type: physicochemical
[4] = Relative polymorph stability (statement); assay type: physicochemical; conditions: compared with the other forms
[5] = Pharmacokinetics in dog after oral suspension; assay type: in vivo; conditions: dogs (both genders), twice-daily oral; for Cmax / AUC(0-t): both sexes, dog, plasma, suspension in 0.5% methylcellulose; for AUC(0-t): read-out: AUC0-24 h
Method: Doses levels ranging from 50 mg/kg to 500 mg/kg were permitted to achieve pharmacological relevant systemic exposures.

[6] = oral, rat, Table 8, formulated similarly to Form C (suspension in 0.5% methylcellulose, 0.1% Tween 80), 100 mg/kg/day
[7] = oral, rat, Table 8, formulated similarly to Form C (suspension in 0.5% methylcellulose, 0.1% Tween 80), 300 mg/kg/day
[8] = both sexes, rat, rats (both genders), once-daily oral, suspension in 0.5% methylcellulose, 0.1% Tween 80, 100 mg/kg/day
[9] = both sexes, rat, rats (both genders), once-daily oral, suspension in 0.5% methylcellulose, 0.1% Tween 80, 300 mg/kg/day
[10] = both sexes, rat, rats (both genders), once-daily oral, suspension in 0.5% methylcellulose, 0.1% Tween 80, 600 mg/kg/day

Post DVS changes [1]: Amorphous
DVS final sample wt lower than starting wt [1]: same wt ~1%
DVS wt gain ([1]; at 95% RH, 25° C.): 7.4% wt gain
Cmax [2, 6]: 7.16 µg/mL
AUC(0-t) [2, 6]: 24.2 µg·h/mL
Cmax [2, 7]: 9.81 µg/mL
AUC(0-t) [2, 7]: 78.5 µg·h/mL
Cmax and AUC compared with Form C ([2]; rat, at both 100 and 300 mpk): slightly superior
Aqueous Solubility ([3]; pH 1.2): pH 1.2: ≥921 ug/mL
Aqueous Solubility ([3]; pH 6.5): pH 6.5: 18 ug/mL
Aqueous Solubility ([3]; pH 7.4): pH 7.4: 140 ug/mL
SMILES: COc1cc(C)[nH]c(=O)c1CNC(=O)c1c(C)n([C@H](C)C2CCN(CC(F)(F)F)CC2)c2ccccc12 [Amorphous, (R)—N-((4-methoxy-6-methyl-2-oxo-1,2-dihydropyridin-3-yl)methyl)-2-methyl-1-(1-(1-(2,2,2-trifluoroethyl)piperidin-4-yl)ethyl)-1H-indole-3-carboxamide]

Post DVS changes [1]: 1% reduction
DVS final sample wt lower than starting wt [1]: wt ~0.8 lower %
DVS wt gain ([1]; at 80% RH, 25° C.): 2% wt gain at
DVS wt gain ([1]; at 95% RH, 25° C.): 5.3 wt gain at % wt
solubility ([3]; aqueous medium at pH 1.2 (buffer not named), pH 1.2, simulated gastric fluid, pH 1.2): ≥ 0.961 mg/mL
Aqueous Solubility ([3]; pH 6.5): pH 6.5: 31 ug/mL
Aqueous Solubility ([3]; pH 7.4): pH 7.4: 28 ug/mL
SMILES: COc1cc(C)[nH]c(=O)c1CNC(=O)c1c(C)n([C@H](C)C2CCN(CC(F)(F)F)CC2)c2ccccc12 [Form A, (R)—N-((4-methoxy-6-methyl-2-oxo-1,2-dihydropyridin-3-yl)methyl)-2-methyl-1-(1-(1-(2,2,2-trifluoroethyl)piperidin-4-yl)ethyl)-1H-indole-3-carboxamide]

DVS hygroscopicity ([1]; 25° C.): Non-
Post DVS changes [1]: No significant
DVS wt gain ([1]; at 95% RH, 25° C.): ≤ 2.3% wt
Cmax [2, 8]: 6.13 µg/mL
AUC(0-t) [2, 8]: 19.6 µg·h/mL
Cmax [2, 9]: 12.8 µg/mL
AUC(0-t) [2, 9]: 86.5 µg·h/mL
Cmax [2, 10]: 56.9 µg/mL
AUC(0-t) [2, 10]: 128 µg·h/mL
systemic exposure AUC(0-24), dependence on dose ([2]; rats (both genders), once-daily oral, between 100 and 600 mg/kg): increased dose-proportionally
polymorph stability [4]: the most stable polymorph
Aqueous Solubility ([3]; pH 1.2): pH 1.2: ≥913 ug/mL
Aqueous Solubility ([3]; pH 6.5): pH 6.5: 14 ug/mL
Aqueous Solubility ([3]; pH 7.4): pH 7.4: 9 ug/mL
Cmax ([5]; 0.1% Tween 80, 50 mg/kg BID): 6.59 µg/mL
AUC(0-t) ([5]; 0.1% Tween 80, 50 mg/kg BID): 42.2 µg·h/mL
Cmax ([5]; 0.1% Tween 80, 150 mg/kg BID): 21.3 µg/mL
AUC(0-t) ([5]; 0.1% Tween 80, 150 mg/kg BID): 176 µg·h/mL
Cmax ([5]; 0.1% Tween 80, 500 mg/kg BID): 34.1 µg/mL
AUC(0-t) ([5]; 0.1% Tween 80, 500 mg/kg BID): 378 µg·h/mL
systemic exposure AUC(0-24), dependence on dose ([5]; between 50 and 500 mg/kg BID): increased mostly dose-proportionally
SMILES: COc1cc(C)[nH]c(=O)c1CNC(=O)c1c(C)n([C@H](C)C2CCN(CC(F)(F)F)CC2)c2ccccc12 [Form C, (R)—N-((4-methoxy-6-methyl-2-oxo-1,2-dihydropyridin-3-yl)methyl)-2-methyl-1-(1-(1-(2,2,2-trifluoroethyl)piperidin-4-yl)ethyl)-1H-indole-3-carboxamide]

Post DVS changes [1]: No significant
DVS wt gain ([1]; at 95% RH, 25° C.): 7.2% wt gain
Aqueous Solubility ([3]; pH 1.2): pH 1.2: ≥970 ug/mL
Aqueous Solubility ([3]; pH 6.5): pH 6.5: 120 ug/mL
Aqueous Solubility ([3]; pH 7.4): pH 7.4: 112 ug/mL
SMILES: COc1cc(C)[nH]c(=O)c1CNC(=O)c1c(C)n([C@H](C)C2CCN(CC(F)(F)F)CC2)c2ccccc12 [Form B, (R)—N-((4-methoxy-6-methyl-2-oxo-1,2-dihydropyridin-3-yl)methyl)-2-methyl-1-(1-(1-(2,2,2-trifluoroethyl)piperidin-4-yl)ethyl)-1H-indole-3-carboxamide]
